Assay results from patent US20260365642A1, “ANTIPARASITIC COMPOUNDS” (Animol Discovery, Inc., priority 2023, published 2026).

test system: Dirofilaria immitis L1 larvae; assay: Screening against microfilaria (L1 larvae) of Dirofilaria immitis, survival/motility; assay type: in vivo; conditions: 72 h, read-out: Ranked D. immitis L1 MED Activity
Method: Example 44. Screening of Compounds Against Microfilaria of Dirofilaria immitis
To evaluate the efficacy of compounds of the disclosure against Dirofilaria immitis, L1 stage larvae were exposed to various concentrations of the compounds to determine survival or paralysis of the larvae. Results are reported as the minimum effective dose (MED), defined as the concentration required to eliminate motility.
To perform the assay, microfilaria of Dirofilaria immitis were added to the wells of a microtiter plate containing buffer and the test compounds in DMSO. Microfilaria exposed to DMSO alone served as controls. An assessment was conducted at 72 hours to determine survival of the microfilaria.

Structure (SMILES) | minimal effective concentration
CN(CC1CN(S(C)(=O)=O)CCO1)c1cc(N2CCOC3(CCCCC3)C2)nc(C(F)(F)F)n1 (racemic) [Compound 4, (R) and (S)-N-methyl-N-((4-(methylsulfonyl)morpholin-2-yl)methyl)-6-(1-oxa-4-azaspiro[5.5]undecan-4-yl)-2-(trifluoromethyl)pyrimidin-4-amine] | < 30000 µM
CN(C[C@H]1CN(S(C)(=O)=O)CCO1)c1cc(N2CCCC3(CCCCC3)C2)nc(C(F)(F)F)n1 [Compound 1, (S)-N-methyl-N-((4-(methylsulfonyl)morpholin-2-yl)methyl)-6-(2-azaspiro[5.5]undecan-2-yl)-2-(trifluoromethyl)pyrimidin-4-amine] | < 10000 µM
CN(Cc1ccc(S(=O)(=O)N(C)C)cc1)c1cc(N2CCCC3(CCCCC3)C2)nc(C(F)(F)F)n1 [Compound 5, 4-(((6-(2-azaspiro[5.5]undecan-2-yl)-2-(trifluoromethyl)pyrimidin-4-yl)(methyl)amino)methyl)-N,N-dimethylbenzenesulfonamide] | > 100000 µM
CN(Cc1ccc(S(C)(=O)=O)cc1)c1cc(N2CCCC3(CCCCC3)C2)nc(C(F)(F)F)n1 [Compound 6, N-methyl-N-(4-(methylsulfonyl)benzyl)-6-(2-azaspiro[5.5]undecan-2-yl)-2-(trifluoromethyl)pyrimidin-4-amine] | > 100000 µM
CN(c1cc(N2CCCC3(CCCCC3)C2)nc(C(F)(F)F)n1)C1CC2(CC(NS(C)(=O)=O)C2)C1 (stereo not shown) [Compound 7, N-(6-((6-(2-azaspiro[5.5]undecan-2-yl)-2-(trifluoromethyl)pyrimidin-4-yl)(methyl)amino)spiro[3.3]heptan-2-yl)methanesulfonamide] | > 100000 µM
CN(CCOc1ccccc1)c1cc(N2CCCC3(CCCCC3)C2)nc(C(F)(F)F)n1 [Compound 8, N-methyl-N-(2-phenoxyethyl)-6-(2-azaspiro[5.5]undecan-2-yl)-2-(trifluoromethyl)pyrimidin-4-amine] | > 100000 µM
CN(CC1CCN(S(C)(=O)=O)C1)c1cc(N2CCCC3(CCCCC3)C2)nc(C(F)(F)F)n1 (stereo not shown) [Compound 9, N-methyl-N-((1-(methylsulfonyl)pyrrolidin-3-yl)methyl)-6-(2-azaspiro[5.5]undecan-2-yl)-2-(trifluoromethyl)pyrimidin-4-amine] | < 30000 µM
CN(C)S(=O)(=O)N1CC2(CN(c3cc(N4CCCC5(CCCCC5)C4)nc(C(F)(F)F)n3)C2)C1 [Compound 10, 6-(6-(2-azaspiro[5.5]undecan-2-yl)-2-(trifluoromethyl)pyrimidin-4-yl)-N,N-dimethyl-2,6-diazaspiro[3.3]heptane-2-sulfonamide] | > 100000 µM
CN(CCN1CCCS1(=O)=O)c1cc(N2CCCC3(CCCCC3)C2)nc(C(F)(F)F)n1 [Compound 11, 2-(2-((6-(2-azaspiro[5.5]undecan-2-yl)-2-(trifluoromethyl)pyrimidin-4-yl)(methyl)amino)ethyl)isothiazolidine 1,1-dioxide] | < 30000 µM
CS(=O)(=O)N1CC2(CC(Nc3cc(N4CCCC5(CCCCC5)C4)nc(C(F)(F)F)n3)C2)C1 [Compound 12, N-(6-(2-azaspiro[5.5]undecan-2-yl)-2-(trifluoromethyl)pyrimidin-4-yl)-2-(methylsulfonyl)-2-azaspiro[3.3]heptan-6-amine] | > 100000 µM
CN(CC1CN(S(C)(=O)=O)C1)c1cc(N2CCCC3(CCCCC3)C2)nc(C(F)(F)F)n1 [Compound 13, N-methyl-N-((1-(methylsulfonyl)azetidin-3-yl)methyl)-6-(2-azaspiro[5.5]undecan-2-yl)-2-(trifluoromethyl)pyrimidin-4-amine] | < 10000 µM
CN(CC1CCCN(S(C)(=O)=O)C1)c1cc(N2CCCC3(CCCCC3)C2)nc(C(F)(F)F)n1 (stereo not shown) [Compound 14, N-methyl-N-((1-(methylsulfonyl)piperidin-3-yl)methyl)-6-(2-azaspiro[5.5]undecan-2-yl)-2-(trifluoromethyl)pyrimidin-4-amine] | > 100000 µM
CS(=O)(=O)N1CCOC(CNc2cc(N3CCCC4(CCCCC4)C3)nc(C(F)(F)F)n2)C1 (stereo not shown) [Compound 15, N-((4-(methylsulfonyl)morpholin-2-yl)methyl)-6-(2-azaspiro[5.5]undecan-2-yl)-2-(trifluoromethyl)pyrimidin-4-amine] | < 10000 µM
CN(CC1CN(S(C)(=O)=O)CCO1)c1cc(N2CCOC3(CCCC3)C2)nc(C(F)(F)F)n1 (stereo not shown) [Compound 16, N-methyl-N-((4-(methylsulfonyl)morpholin-2-yl)methyl)-6-(6-oxa-9-azaspiro[4.5]decan-9-yl)-2-(trifluoromethyl)pyrimidin-4-amine] | < 30000 µM
CN(CC1CN(S(C)(=O)=O)CCO1)c1cc(N2CC3CCC(C2)O3)nc(C(F)(F)F)n1 (stereo not shown) [Compound 17, 6-(8-oxa-3-azabicyclo[3.2.1]octan-3-yl)-N-methyl-N-((4-(methylsulfonyl)morpholin-2-yl)methyl)-2-(trifluoromethyl)pyrimidin-4-amine] | > 100000 µM
CN(CC1CN(S(C)(=O)=O)CCO1)c1cc(N2CC3CC(C2)O3)nc(C(F)(F)F)n1 (stereo not shown) [Compound 18, 6-(6-oxa-3-azabicyclo[3.1.1]heptan-3-yl)-N-methyl-N-((4-(methylsulfonyl)morpholin-2-yl)methyl)-2-(trifluoromethyl)pyrimidin-4-amine] | > 100000 µM
CS(=O)(=O)N1CCOC(CN(Cc2ccccc2)c2cc(N3CCOC4(CCCCC4)C3)nc(C(F)(F)F)n2)C1 (stereo not shown) [Compound 19, N-benzyl-N-((4-(methylsulfonyl)morpholin-2-yl)methyl)-6-(1-oxa-4-azaspiro[5.5]undecan-4-yl)-2-(trifluoromethyl)pyrimidin-4-amine] | > 100000 µM
CCN(CC1CN(S(C)(=O)=O)CCO1)c1cc(N2CCOC3(CCCCC3)C2)nc(C(F)(F)F)n1 (stereo not shown) [Compound 20, N-ethyl-N-((4-(methylsulfonyl)morpholin-2-yl)methyl)-6-(1-oxa-4-azaspiro[5.5]undecan-4-yl)-2-(trifluoromethyl)pyrimidin-4-amine] | < 10000 µM
CN(CC1CN(S(C)(=O)=O)CCO1)c1cc(N2CCOC3(CCC(F)(F)CC3)C2)nc(C(F)(F)F)n1 (stereo not shown) [Compound 21, 6-(9,9-difluoro-1-oxa-4-azaspiro[5.5]undecan-4-yl)-N-methyl-N-((4-(methylsulfonyl)morpholin-2-yl)methyl)-2-(trifluoromethyl)pyrimidin-4-amine] | < 10000 µM
CN(CC1CN(S(C)(=O)=O)CCC1(F)F)c1cc(N2CCC(F)(F)C3(CCCCC3)C2)nc(C(F)(F)F)n1 (stereo not shown) [Compound 22, N-((4,4-difluoro-1-(methylsulfonyl)piperidin-3-yl)methyl)-6-(5,5-difluoro-2-azaspiro[5.5]undecan-2-yl)-N-methyl-2-(trifluoromethyl)pyrimidin-4-amine] | > 100000 µM
CN(CC1CN(S(C)(=O)=O)CCO1)c1cc(N2CCC(F)(F)C3(CCCCC3)C2)nc(C(F)(F)F)n1 (stereo not shown) [Compound 23, 6-(5,5-difluoro-2-azaspiro[5.5]undecan-2-yl)-N-methyl-N-((4-(methylsulfonyl)morpholin-2-yl)methyl)-2-(trifluoromethyl)pyrimidin-4-amine] | < 10000 µM
CN(CC1CN(S(C)(=O)=O)CCC1(F)F)c1cc(N2CCOC3(CCCCC3)C2)nc(C(F)(F)F)n1 (stereo not shown) [Compound 24, N-((4,4-difluoro-1-(methylsulfonyl)piperidin-3-yl)methyl)-N-methyl-6-(1-oxa-4-azaspiro[5.5]undecan-4-yl)-2-(trifluoromethyl)pyrimidin-4-amine] | < 10000 µM
CN(CC1CN(S(C)(=O)=O)CCS1(=O)=O)c1cc(N2CCOC3(CCCCC3)C2)nc(C(F)(F)F)n1 (stereo not shown) [Compound 25, 2-(((6-(1-oxa-4-azaspiro[5.5]undecan-4-yl)-2-(trifluoromethyl)pyrimidin-4-yl)(methyl)amino)methyl)-4-(methylsulfonyl)thiomorpholine 1,1-dioxide] | > 100000 µM
CN(CC1CN(S(C)(=O)=O)CCS1)c1cc(N2CCOC3(CCCCC3)C2)nc(C(F)(F)F)n1 (stereo not shown) [Compound 26, N-methyl-N-((4-(methylsulfonyl)thiomorpholin-2-yl)methyl)-6-(1-oxa-4-azaspiro[5.5]undecan-4-yl)-2-(trifluoromethyl)pyrimidin-4-amine] | < 30000 µM
CN(CC1CN(S(C)(=O)=O)CCO1)c1cc(N2CCS(=O)(=O)C3(CCCCC3)C2)nc(C(F)(F)F)n1 (stereo not shown) [Compound 27, 4-(6-(methyl((4-(methylsulfonyl)morpholin-2-yl)methyl)amino)-2-(trifluoromethyl)pyrimidin-4-yl)-1-thia-4-azaspiro[5.5]undecane 1,1-dioxide] | < 30000 µM
CN(CC1CN(S(C)(=O)=O)CCO1)c1cc(N2CCSC3(CCCCC3)C2)nc(C(F)(F)F)n1 (stereo not shown) [Compound 28, N-methyl-N-((4-(methylsulfonyl)morpholin-2-yl)methyl)-6-(1-thia-4-azaspiro[5.5]undecan-4-yl)-2-(trifluoromethyl)pyrimidin-4-amine] | < 10000 µM
CN(CC1CN(S(C)(=O)=O)CCS1(=O)=O)c1cc(N2CCS(=O)(=O)C3(CCCCC3)C2)nc(C(F)(F)F)n1 (stereo not shown) [Compound 29, 4-(6-(methyl((4-(methylsulfonyl)-1,1-dioxidothiomorpholin-2-yl)methyl)amino)-2-(trifluoromethyl)pyrimidin-4-yl)-1-thia-4-azaspiro[5.5]undecane 1,1-dioxide] | < 30000 µM
CN(CC1CN(S(C)(=O)=O)CCS1)c1cc(N2CCSC3(CCCCC3)C2)nc(C(F)(F)F)n1 (stereo not shown) [Compound 30, N-methyl-N-((4-(methylsulfonyl)thiomorpholin-2-yl)methyl)-6-(1-thia-4-azaspiro[5.5]undecan-4-yl)-2-(trifluoromethyl)pyrimidin-4-amine] | < 10000 µM
